Experimental data reported in ChEMBL document CHEMBL1127194, “1,3- And 1,5-bisbiphenylyl substituted 3-metcaptotriazoles as angiotensin II receptor antagonists” (Bioorg Med Chem Lett, 1993).

molecular target: Oryctolagus cuniculus angiotensin II receptor; assay: Inhibition of angiotensin II induced contractions in rabbit aortic ring preparation.

Row | Compound | pA2
1 | CCCCCCCc1nc(SCc2ccc(-c3ccccc3C(=O)O)cc2)n(Cc2ccc(-c3ccccc3C(=O)O)cc2)n1 | 5.9
2 | CCCCc1nc(SCc2ccc(-c3ccccc3C(=O)O)cc2)n(Cc2ccc(-c3ccccc3C(=O)O)cc2)n1 | 7
3 | O=C(O)c1ccccc1-c1ccc(CSc2nc(Cc3ccccc3)nn2Cc2ccc(-c3ccccc3C(=O)O)cc2)cc1 | 6.1
4 | CCCCCCc1nc(SCc2ccc(-c3ccccc3C(=O)O)cc2)nn1Cc1ccc(-c2ccccc2C(=O)O)cc1 | 8
5 | CC(C)Cc1nc(SCc2ccc(-c3ccccc3C(=O)O)cc2)nn1Cc1ccc(-c2ccccc2C(=O)O)cc1 | 7.5
6 | CCCCCCCc1nc(SCc2ccc(-c3ccccc3C(=O)O)cc2)nn1Cc1ccc(-c2ccccc2C(=O)O)cc1 | 6.7
7 | CCCCCc1nc(SCc2ccc(-c3ccccc3C#N)cc2)nn1Cc1ccc(-c2ccccc2C(=O)O)cc1 | 6.3
8 | CCCCCc1nc(SCc2ccc(-c3ccccc3C(=O)O)cc2)n(Cc2ccc(-c3ccccc3C(=O)O)cc2)n1 | 7.2

More lines, now with the values ahead:

Row | pA2 | Compound
9 | 8.4 | CCCCCc1nc(SCc2ccc(-c3ccccc3C(=O)O)cc2)nn1Cc1ccc(-c2ccccc2C(=O)O)cc1
10 | < 5 | CCCCCc1nc(SCc2ccc(-c3ccccc3C(=O)O)cc2)nn1Cc1ccc(-c2ccccc2C#N)cc1
11 | 6.1 | CCCCCCCCc1nc(S(=O)(=O)Cc2ccc(-c3ccccc3C(=O)O)cc2)nn1Cc1ccc(-c2ccccc2C(=O)O)cc1
12 | < 5 | CCCCc1nc(SCc2ccc(-c3ccccc3C(=O)OC)cc2)nn1Cc1ccc(-c2ccccc2C(=O)OC)cc1
13 | 8.1 | CCCCCCc1nc(S(=O)(=O)Cc2ccc(-c3ccccc3C(=O)O)cc2)nn1Cc1ccc(-c2ccccc2C(=O)O)cc1
14 | 7 | O=C(O)c1ccccc1-c1ccc(CSc2nc(Cc3ccccc3)n(Cc3ccc(-c4ccccc4C(=O)O)cc3)n2)cc1
15 | 8.3 | CCCCc1nc(SCc2ccc(-c3ccccc3C(=O)O)cc2)nn1Cc1ccc(-c2ccccc2C(=O)O)cc1
16 | < 5 | CCCCCc1nc(SCc2ccc(-c3ccccc3C(=O)OC)cc2)nn1Cc1ccc(-c2ccccc2C(=O)OC)cc1
17 | 6.5 | CCCCCCCc1nc(S(=O)(=O)Cc2ccc(-c3ccccc3C(=O)O)cc2)nn1Cc1ccc(-c2ccccc2C(=O)O)cc1

test system: Rattus norvegicus; assay: Tested for the decrease in blood pressure at a dose of ~10 mg/kg by intravenous administration for ~24h; assay type: functional

Row | Compound | Blood pressure
18 | CCCCc1nc(Cl)c(CO)n1Cc1ccc(-c2ccccc2-c2nnn[nH]2)cc1 [LOSARTAN] | 37 mmHg

test system: Rattus norvegicus; assay: Tested for the decrease in blood pressure at a dose of ~5 mg/kg by intravenous administration for ~24h; assay type: functional

Row | Compound | Blood pressure
19 | CCCCCc1nc(SCc2ccc(-c3ccccc3C(=O)O)cc2)nn1Cc1ccc(-c2ccccc2C(=O)O)cc1 | 24 mmHg
